Source: patent publication US4515793A, “Phenylpiperazines which are useful in the treatment of schistosomiasis” (Edna McConnell Clark Foundation, priority 1983, dated 1985)
Like-named read-outs stand apart in the source and are kept apart here.

Test system: S. mansoni
Assay: antischistosomal activity in mice (live worm burden, single oral dose)
Type: in vivo, S. mansoni (host: CD1 white female mice)
Conditions: Schistosoma mansoni, read-out: % Reduction Live Worm Burden
Description: Tests were conducted to determine the antischistosomal activity in mice and monkeys. The results of the mice tests are reported in Tables 1 to 4 along with the chemical identifications of the compounds synthesized and tested.
The mice tests were conducted as follows:
A. Preinfection Procedures: Purina Laboratory chow (Ralston-Purina) and water were given ad libitum. All mice were housed in hanging stainless steel cages, without bedding, five per cage. They were kept in a ward with an ambient temperature of 75° F. and a relative humidity of 50-55%. Therapeutic treatment was given on Day 40 post-infection.
B. Experimental Procedures: CD1 white female mice were exposed by the tail immersion method for 30 minutes to 80 individually counted S. mansoni cercariae (WRAIR laboratory strain). The cercariae were obtained from pools of no less than 25 Biophalaria glabrata snails. Each experiment consisted of 118 mice divided into infected/water treated and infected/vehicle-treated controls, and infected/drug-treated groups (two dose levels) for six compounds. Groups of 12 mice each were treated with a compound synthesized and provided by the Warner-Lambert Company, Ann Arbor, Mich. at two dose levels. At the same time, five mice were sacrificed to establish worm burdens as infection controls. Three weeks after treatment, all remaining mice were sacrificed and perfused. Gross pathology (liver and intestines) was noted and graded (0 to +3). Worm burdens were determined and the sex of the worms recorded. Following perfusions the liver and intestines were removed and examined for the presence of […] or dead worms. […] Drugs were administered orally in Emulphor EL.
C. Drug Treatment: Treatment consisted of a single oral dose. Each drug was give initially at two dose levels, 40 mg/kg and 125 mg/kg, SID×1.
D. Criteria Used to Evaluate Therapeutic Effectiveness:
Evaluation of activity was determined by examination of the animals at 23 to 28 days after treatment. The schistosomes remaining alive after treatment were counted in the perfusates of the hepatic portal system and in press preparation of the livers. In the same preparations, the relative numbers of dead and/or encapsulated (i.e., worms may or may not be dead) parasites and the relative degree of pathology were ascertained. The efficacy of each treatment was that percentage of the control infection represented by the difference between numbers of parasites recovered from control (H2 O+vehicle) and treated animals. Thus, % efficacy is: [formula]

[1] = 40 mg/kg, single oral dose, mice
[2] = 125 mg/kg, single oral dose, mice
[3] = single oral dose, mice (footnote, 125 mg/kg column)

Compound | inhibition in vivo at 40 mg/kg [1] [%] | inhibition in vivo at 125 mg/kg [2] [%] | further results
Cc1cc(C)c(C(=O)CN2CCN(c3ccc(CO)c(Cl)c3)CC2)c(C)c1 [compound 21] | 27 | 78 | –
O=C(CN1CCN(c2ccc(CO)c(Cl)c2)CC1)c1ccc2ccccc2c1 [compound 19] | -37 | 17 | –
Cc1ccc(C(=O)CCN2CCN(c3ccc(CO)c(Cl)c3)CC2)cc1 [compound 30] | 75 | 96 | –
C[S+]([O-])c1ccc(C(=O)CCN2CCN(c3ccc(CO)c(Cl)c3)CC2)cc1 (stereo not drawn) [compound 38] | 73 | 91 | –
O=C(CCN1CCN(c2ccc(CO)c(Cl)c2)CC1)c1ccc(F)cc1F [compound 40] | 86 | 99 | inhibition in vivo at 20 mg/kg (single oral dose, mice): 71%
O=C(CN1CCN(c2ccc(CO)c(Cl)c2)CC1)c1ccc(Cl)cc1Cl [Cpd. 3] | 81 | 94 | inhibition in vivo at 20 mg/kg (single oral dose, mice): 62%
O=C(CN1CCN(c2ccc(CO)c(Cl)c2)CC1)c1ccc([N+](=O)[O-])cc1 [Cpd. 5] | 74 | 98 | –
O=C(CCN1CCN(c2ccc(CO)c(Cl)c2)CC1)c1ccc(C2CCCCC2)cc1 [compound 33] | 79 | 93 | –
CS(=O)(=O)c1ccc(C(=O)CCN2CCN(c3ccc(CO)c(Cl)c3)CC2)cc1 [Cpd. 32] | 84 | 91 | inhibition in vivo at 20 mg/kg (single oral dose, mice): 43%
O=C(CCN1CCN(c2ccc(CO)c(Cl)c2)CC1)c1ccc(Cl)c(Cl)c1Cl [compound 41] | 83 | 96 | inhibition in vivo at 20 mg/kg (single oral dose, mice): 82%
COc1ccc(C(=O)CCN2CCN(c3ccc(CO)c(Cl)c3)CC2)cc1 [compound 34] | 39 | 93 | –
O=C(CCCN1CCN(c2ccc(CO)c(Cl)c2)CC1)c1cccs1 [Cpd. 58, 4-[4-[3-Chloro-4-(hydroxymethyl)phenyl]-1-piperazinyl]-1-(2-thienyl)-1-butanone] | 20 | 77 | –
O=C(CN1CCN(c2ccc(CO)c(Cl)c2)CC1)c1ccc(F)cc1 [Cpd. 2] | 19 | 61 | –
CC(O)(CN1CCN(c2ccc(CO)c(Cl)c2)CC1)c1ccc(Cl)cc1 (stereo not drawn) [Cpd. 61] | 88 | 96 | inhibition in vivo at 20 mg/kg (single oral dose, mice): 68%
O=C(CN1CCN(c2ccc(CO)c(Cl)c2)CC1)c1ccco1 [compound 46] | – | – | inhibition in vivo at 50 mg/kg (50 mg/kg, single oral dose, mice (footnote, 40 mg/kg)): 31%; inhibition in vivo at 156 mg/kg (156 mg/kg, single oral dose, mice (footnote, 125 mg/kg column)): 83%
N#Cc1ccc(C(=O)CN2CCN(c3ccc(CO)c(Cl)c3)CC2)cc1 [compound 23] | 40 | 90 | –
Cc1cc(C)c(C(=O)CN2CCN(c3ccc(CO)c(Cl)c3)CC2)cc1C [compound 17] | 29 | – | inhibition in vivo at 160 mg/kg [3]: 71%
O=C(CN1CCN(c2ccc(CO)c(Cl)c2)CC1)c1ccc2c(c1)Sc1ccccc1S2 [compound 55] | 54 | 68 | –
O=C(CN1CCN(c2ccc(CO)c(Cl)c2)CC1)c1cc(Cl)c(Cl)cc1Cl [compound 13] | 86 | 98 | inhibition in vivo at 20 mg/kg (single oral dose, mice): 53%
Cc1csc(C(=O)CN2CCN(c3ccc(CO)c(Cl)c3)CC2)c1 [compound 52] | 25 | 69 | –
O=C(CCN1CCN(c2ccc(CO)c(Cl)c2)CC1)c1ccc(Cl)cc1Cl [compound 39] | 86 | 94 | inhibition in vivo at 20 mg/kg (single oral dose, mice): 70%
Cc1ccsc1C(=O)CN1CCN(c2ccc(CO)c(Cl)c2)CC1 [compound 50] | -12 | 28 | –
O=C(CN1CCN(c2ccc(CO)c(Cl)c2)CC1)c1ccc(Cl)cc1 [Cpd. 1] | 42 | 67 | –

Compound | inhibition in vivo at 40 mg/kg [1] [%] | inhibition in vivo at 125 mg/kg [2] [%] | further results
O=C(CN1CCN(c2ccc(CO)c(Cl)c2)CC1)c1ccc(C(=O)Oc2ccccc2)cc1 [compound 7] | -20 | 0 | –
O=C(CCN1CCN(c2ccc(CO)c(Cl)c2)CC1)c1ccccc1 [compound 29] | 69 | 89 | –
O=C(CCN1CCN(c2ccc(CO)c(Cl)c2)CC1)c1ccc(Cl)c([N+](=O)[O-])c1 [Cpd. 35] | 79 | 98 | –
O=C(CCCN1CCN(c2ccc(CO)c(Cl)c2)CC1)c1ccc(Cl)cc1 [Cpd. 59, 1-(4-Chlorophenyl)-4-[4-[3-chloro-4-(hydroxymethyl)phenyl]-1-piperazinyl]-1-butanone] | 30 | 68 | –
O=C(CN1CCN(c2ccc(CO)c(Cl)c2)CC1)c1cc(Cl)ccc1Cl [compound 20] | 65 | – | inhibition in vivo at 20 mg/kg (single oral dose, mice): 72%; inhibition in vivo at 160 mg/kg [3]: 99%
O=C(CN1CCN(c2ccc(CO)c(Cl)c2)CC1)c1cccs1 [compound 45] | 10 | 68 | –
O=C(CN1CCN(c2ccc(CO)c(Cl)c2)CC1)c1ccc(I)cc1 [Cpd. 6] | 62 | 83 | –
O=C(CN1CCN(c2ccc(CO)c(Cl)c2)CC1)c1cccc([N+](=O)[O-])c1 [Cpd. 12, 2-[4-[3-chloro-4-(hydroxymethyl)phenyl]-1-piperazinyl]-1(3-nitrophenyl)ethanone] | 31 | 73 | –
O=C1c2ccccc2CCC1N1CCN(c2ccc(CO)c(Cl)c2)CC1 (stereo not drawn) [compound 22] | – | – | inhibition in vivo at 40 mg/kg: 73%; inhibition in vivo at 125 mg/kg: 87%
O=C(CN1CCN(c2ccc(CO)c(Cl)c2)CC1)c1ccc(C(F)(F)F)cc1 [compound 15] | 43 | 79 | –
O=C(CN1CCN(c2ccc(CO)c(Cl)c2)CC1)c1ccsc1 [compound 51] | -6 | 83 | –
COc1cc(C(=O)CN2CCN(c3ccc(CO)c(Cl)c3)CC2)cc(OC)c1OC [compound 10] | -23 | – | inhibition in vivo at 160 mg/kg [3]: 13%
O=C(CN1CCN(c2ccc(CO)c(Cl)c2)CC1)c1ccc(I)s1 [compound 48] | -20 | 30 | –
O=C(CN1CCN(c2ccc(CO)c(Cl)c2)CC1)c1ccc(S(=O)(=O)N2CCCCC2)cc1 [Cpd. 4] | -10 | 66 | –
Nc1cccc(C(=O)CN2CCN(c3ccc(CO)c(Cl)c3)CC2)c1 [Cpd. 25, 2-[4-[3-Chloro-4-(hydroxymethyl)phenyl]-1-piperazinyl]-1-(3-aminophenyl)-ethanone] | -11 | 46 | –
O=C(CN1CCN(c2ccc(CO)c(Cl)c2)CC1)c1cc(Cl)sc1Cl [compound 54] | 69 | 83 | –
Nc1cc(C(=O)CN2CCN(c3ccc(CO)c(Cl)c3)CC2)ccc1Cl [compound 26] | -12 | 45 | –
Nc1cc(C(=O)CCN2CCN(c3ccc(CO)c(Cl)c3)CC2)ccc1Cl [Cpd. 37] | 83 | 95 | inhibition in vivo at 20 mg/kg (single oral dose, mice): 81%
CC(C)(C)c1ccc(C(=O)CN2CCN(c3ccc(CO)c(Cl)c3)CC2)cc1 [compound 11] | 16 | – | inhibition in vivo at 160 mg/kg [3]: 59%
O=C(CN1CCN(c2ccc(CO)c(Cl)c2)CC1)c1cc(Cl)cc(Cl)c1 [compound 16] | 64 | 89 | –
Cc1ccc(C(=O)CCCN2CCN(c3ccc(CO)c(Cl)c3)CC2)cc1C [compound 60] | 67 | 88 | –
O=C(CCN1CCN(c2ccc(CO)c(Cl)c2)CC1)c1ccco1 [Cpd. 57] | 85 | 98 | inhibition in vivo at 20 mg/kg (single oral dose, mice): 60%
COc1ccc(C(=O)CN2CCN(c3ccc(CO)c(Cl)c3)CC2)c(OC)c1OC [compound 9] | 13 | 30 | –
